Source: US8552018B2, “Substituted tricyclic compounds as protein kinase inhibitors” (Arizona Board of Regents on behalf of the University of …, priority 2003, dated 2013)
One block for each compound: values may come before it.

Key:
[1] = target: T1, aurora-2 kinase (Homo sapiens, UniProt O14965); test: Aurora-2 kinase inhibition assay (Kinase-Glo); type: biochemical; conditions: aurora-2 kinase, FIG. 11
T1 construct: purchased Imgenex, San Diego, Calif; host or cells: sf9 cells
T1 sequence (O14965 1-403): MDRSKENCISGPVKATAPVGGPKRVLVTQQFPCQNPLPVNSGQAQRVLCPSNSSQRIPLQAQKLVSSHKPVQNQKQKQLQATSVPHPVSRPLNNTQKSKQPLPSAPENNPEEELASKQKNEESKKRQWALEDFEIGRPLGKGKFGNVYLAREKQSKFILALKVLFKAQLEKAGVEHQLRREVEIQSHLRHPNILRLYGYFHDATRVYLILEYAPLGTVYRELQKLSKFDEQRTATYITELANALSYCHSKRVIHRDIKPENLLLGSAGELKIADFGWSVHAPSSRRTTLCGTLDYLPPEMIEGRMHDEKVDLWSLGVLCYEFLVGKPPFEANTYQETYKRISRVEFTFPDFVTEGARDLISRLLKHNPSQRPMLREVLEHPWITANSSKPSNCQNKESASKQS
Experimental: In this assay kinase activity is determined by quantifying the amount of ATP remaining in solution following the kinase reaction by measuring the light units (LU) produced by luciferase using a luminometer. Percent inhibition was determined for individual compounds by comparing luminometer readings of drug-treated reactions to controls containing no drug (DMSO control) and no Aurora-2 enzyme (ATP control) in the following equation: […]
In a 50 μl reaction, recombinant aurora-2 kinase produced in sf9 cells (Imgenex, San Diego, Calif.) was incubated at 30° C. for two hours with 62.5 μM Kemptide (Calbiochem, San Diego, Calif.), 3 μM ATP (Invitrogen, Carlsbad, Calif.) and kinase reaction buffer (40 mM Tris-HCl, 10 mM MgCl2 and 0.1 μg/μl bovine serum albumin (BSA)). This reaction was carried out in the presence of drug substances, which had been previously diluted to desired concentrations in DMSO. After incubation, 50 μl of Kinase-Glo® (Promega, Inc., Madison, Wis.) solution was added to each reaction mixture and allowed to equilibrate for 10 minutes at room temperature. Kinase-Glo solution contains luciferase enzyme and luciferin, which react with ATP to produce light. Kinase activity is determined by quantifying the amount of ATP remaining in solution following the kinase reaction by measuring the light units (LU) produced by luciferase using a luminometer (PerkinElmer, Boston, Mass.).

[2] = system: GIST882 cell line; test: Cancer cell cytotoxicity assay (sulforhodamine B); type: cell-based; conditions: for IC50: Homo sapiens, 96 h, GIST882, 4 days, read-out: IC50 c-kit GIST882
Experimental: To validate the hypothesis that the designed c-kit/PDGFR tyrosine kinase inhibitors mediate GIST882 cell killing and PDGFR-mediated cell killing of pancreatic cancer cell lines (CFPAC-1, PANC-1 and MIA PaCa-2), an in vitro cytotoxicity assay was performed. The GIST882 cell line used in this study has a c-kit gain-of-function mutation (K642E). […] First the cells were cultured. GIST882 cells were provided by Dr. Jonathan A. Fletcher (Dana-Farber Cancer Institute, Boston, Mass.). PANC-1 and MIAPaCa-2 cells were provided by Dr. Daniel Von Hoff (Arizona Cancer Center, Tucson, Ariz.). […] All the cell lines were incubated in a humidified incubator at 37° C. with 5% CO2 atmosphere.
(§1) After incubation for 4 days at 37° C. in a humidified incubator, the cells were fixed with 10% Trichloroacetic acid solution (Catalog No. 490-10, Sigma). Subsequently, they were labeled with 0.04% Sulforhodamine B (S9012, Sigma) in 1% acetic acid. After multiple washes to remove excess dye, 100 μl of 50 mM Tris solution was added to each well in order to dissolve the dye. The absorbance of each well was read on a plate reader (Wallac Vector^2, PerkinElmer) at the wavelength of 570 nm. Data were expressed as the percentage of survival of control calculated from the absorbance corrected for background absorbance. The surviving percent of cells was determined by dividing the mean absorbance values of the […] by the mean absorbance values of the control and multiplying by 100.

[3] = system: MIAPaCa-2 cells; test: Cancer cell cytotoxicity assay (sulforhodamine B); type: cell-based; conditions: Homo sapiens, MIA PaCa-2, 96 h; MIAPaCa-2, 4 days; read-out: IC50 PDGFR MIAPaCa
Experimental: (§2) To validate the hypothesis that the designed c-kit/PDGFR tyrosine kinase inhibitors mediate GIST882 cell killing and PDGFR-mediated cell killing of pancreatic cancer cell lines (CFPAC-1, PANC-1 and MIA PaCa-2), an in vitro cytotoxicity assay was performed. The GIST882 cell line used in this study has a c-kit gain-of-function mutation (K642E). The assay utilized the Cell Titer 965 Non-Radioactive Cell Proliferation Assay (Promega Corp., Madison, Wis.). First the cells were cultured. GIST882 cells were provided by Dr. Jonathan A. Fletcher (Dana-Farber Cancer Institute, Boston, Mass.). PANC-1 and MIAPaCa-2 cells were provided by Dr. Daniel Von Hoff (Arizona Cancer Center, Tucson, Ariz.). GIST882 cells were cultured in RPMI 1640 medium (Cat #21870-076, Invitrogen Corporation) supplemented with 300 mg/L L-glutamine, 100 unit/ml penicillin, 100 μg/ml streptomycin and 15% fetal bovine serum. PANC-1 and MIAPaCa-2 cells were maintained in RPMI 1640 medium (cat #10-040, Mediatech, Inc.) supplemented with 100 unit/ml penicillin, 100 μg/ml streptomycin and 10% fetal bovine serum. All the cell lines were incubated in a humidified incubator at 37° C. with 5% CO2 atmosphere.
as §1, with “Cells were plated at a density of 2000 to 10000 cells per well, depending on their growth rate, in 0.1 mL medium on day 0 in 96-well Falcon microtiter plates (#3072, Becton-Dickinson Labware, Lincoln Park, N.J.). On day 1, 10 μL of serial dilutions of the individual compounds were added to the plates in replicates of 4. After incubation” for “After incubation”

[4] = system: PANC-1 cells; test: Cancer cell cytotoxicity assay (sulforhodamine B); type: cell-based; conditions: Homo sapiens, 96 h; PANC-1, 4 days; read-out: IC50 PDGFR PANC-1
Experimental: as §2
as §1, with “Cells were plated at a density of 2000 to 10000 cells per well, depending on their growth rate, in 0.1 mL medium on day 0 in 96-well Falcon microtiter plates (#3072, Becton-Dickinson Labware, Lincoln Park, N.J.). On day 1, 10 μL of serial dilutions of the individual compounds were added to the plates in replicates of 4. After incubation” for “After incubation”

[5] = system: GIST882 cell line; test: GIST882 cell growth assay (Cell-Titer-Glo); type: cell-based; conditions: Homo sapiens; GIST882, 96 hours
Experimental: (§3) Briefly, cells are seeded into 96-well, tissue-culture treated, opaque white plates (Thermo Electron, Vantaa, Finland), at between 5000 and 7500 cells per well, depending on the speed of cell proliferation, in 100 μl of appropriate growth medium (determined by the ATCC). Cells are then exposed to the appropriate concentration of drug or an equal amount of DMSO (drug diluent) and allowed to grow in its presence for 96 hours. Following this, 100 μl of Cell-Titer-Glo reagent (Promega, Inc., Madison, Wis.) is added to each well. Plates are then shaken for 2 minutes at room temperature to allow for cell lysis and incubated for 10 minutes to stabilize the luminescent signal. Similar to the Kinase-Glo assay reagent, this reagent contains both luciferase enzyme and its substrate luciferin. Luciferase, activated by ATP in the cell lysate, catalyzes the conversion of luciferin to oxyluciferin, a reaction which produces light. The amount of light produced is proportionate to the amount of ATP in the cell lysate, which is itself proportional to cell number and gives an index of cellular proliferation.
as §3, with “Various compounds of the invention, including (IV-1-3) (also referred to as HPK16), (III-1-3) (also referred to as HPK56), (III-1-4) (also referred to as HPK57), (III-1-5) (also referred to as HPK59), and (II-2-7) (also referred to as HPK61) were tested for activity against GIST tumor cells using the GIST882 cell line. Briefly,” for “Briefly,”

[6] = system: metastatic GISTs; conditions: 400 mg or 600 mg per day, patients assessed at 1-3 months; cited from earlier work
[7] = system: c-Met autophosphorylation in NIH 3T3 cells; test: Immunoblot for phospho-Met; type: cell-based; conditions: NIH 3T3, 4 hours, agent alone
Experimental: (§4) MP-470 (Compound III-1-3) has inhibitory effects on a number of receptor tyrosine kinases. In order to evaluate these effects at the cellular level, immunoblot analysis was performed on lysates from cells treated with MP470, with or without the addition of the EGFR inhibitor Tarceva®. Lysates were assayed for general tyrosine kinase activity, as well as the specific phosphorylation of c-Met and Akt. Briefly, NIH 3T3 cells were pretreated with drugs as indicated for 4 hours, then treated with pervanadate for a further 30 minutes. Immunoblot detection was carried out with antibodies for phosphotyrosine, phospho-Met and phospho-Akt (S473), as well as total c-Met and Akt. Beta-actin was used as a loading control.

[8] = system: Akt phosphorylation in NIH 3T3 cells; test: Immunoblot for phospho-Akt (S473); type: cell-based; conditions: NIH 3T3, 4 hours, agent alone
Experimental: as §4, with “In” for “MP-470 (Compound III-1-3) has inhibitory effects on a number of receptor tyrosine kinases. In”

[9] = system: Akt phosphorylation in LNCaP prostate carcinoma cells; test: Immunoblot for phospho-Akt (S473); type: cell-based; conditions: 48 hours, agent alone
Experimental: LNCaP prostate carcinoma cells were treated with MP-470, in combinations with Tarceva® and Gleevec®, for 48 hours. Following incubation, cells were lysed and total protein subjected to immunoblot analysis for total Akt and phospho-Akt (S473).

IC50 [1]: 36 µM
SMILES: COc1cc2ncnc(Nc3ncc(NC(=S)NCc4ccc5c(c4)OCO5)cn3)c2cc1OC [AKS110, 1-Benzo[1,3]dioxol-5-yl methyl-3-[2-(6,7-dimethoxy-quinazolin-4ylamino)-pyrimidin-5yl]-thiourea]

SMILES: S=C(NCc1ccc2c(c1)OCO2)N1CCN(c2ncnc3c2sc2ncccc23)CC1 [HPK57, 4-(9-Thia-1,5,7-triaza-fluoren-8-yl)-piperazine-1-carbothioic acid (benzo[1,3]dioxol-5-ylmethyl)-amide]
IC50 [2]: 28 µM
IC50 [3]: > 50 µM
IC50 [4]: > 50 µM
IC50 [5]: 28 µM

SMILES: O=S(=O)(Nc1ncccn1)c1ccc(NC(=S)N2CCN(c3ncnc4c3oc3ccccc34)CC2)cc1 [HPK59, 4-Benzo[4,5]furo[3,2-d]pyrimidin-4-yl-piperazine-1-carbothioic acid [4-(pyrimidin-2-ylsulfamoyl)-phenyl]-amide]
IC50 [2]: 27.5 µM
IC50 [5]: 27.5 µM

SMILES: O=S(=O)(Nc1ncccn1)c1ccc(NC(=S)N2CCN(c3ncnc4c3sc3ncccc34)CC2)cc1 [HPK60, 4-(9-Thia-1,5,7-triaza-fluoren-8-yl)-piperazine-1-carbothioic acid [4-(pyrimidin-2-ylsulfamoyl)-phenyl]-amide]
IC50 [2]: 50 µM
IC50 [3]: > 50 µM
IC50 [4]: > 50 µM
IC50 [5]: 50 µM

SMILES: Cc1ccc(NC(=O)c2ccc(CN3CCN(C)CC3)cc2)cc1Nc1nccc(-c2cccnc2)n1 [STI571]
cells alive at day 4 ([2]; GIST882, day 4): 25%
partial response [6]: 54%
progressive disease [6]: 12%
stable disease [6]: 34%

SMILES: C#Cc1cccc(Nc2ncnc3cc(OCCOC)c(OCCOC)cc23)c1 [Tarceva®, reference compound]
activating autophosphorylation of c-Met [7]: Neither of these effects was observed
phosphorylation of Akt [8]: Neither of these effects was observed
phosphorylation of Akt [9]: did not appear to have an effect
